# Data as given in patent US12611423B2, “Medical use of tafoxiparin” (DILAFOR AB, priority 2022, dated 2026).
# System: term pregnant, nulliparous women with an unripe cervix
# Assay: Clinical phase II trial PPL17 (Parts A and B), subcutaneous tafoxiparin vs placebo
# Assay type: in vivo, human
# Conditions: for Labor induced with PGE-1, % of women: placebo 10.2%; for Fetal distress as indication for operative delivery (ODFD), % of women: placebo 22.7%; for patients with operative delivery, % / women needing instrumental delivery (FIG. 4, vaginal mode of partus): placebo 45.5%; for Labor induced with amniotomy, % of women: placebo 56.8%; for Labor induction with Balloon catheter, % of women: placebo 58.0%; for Labor induced, % of women: placebo 70.5%; for women needing instrumental delivery or caesarian section to reach partus (FIG. 5): placebo 52%; for women reaching partus by vaginal delivery with no need for instrumental delivery nor caesarian section (FIG. 5): placebo 48%; for number of subjects (women) that reach spontaneous onset of labor / subjects (women) that reach spontaneous onset of labor, % of n: cumulative, n = 37
# Protocol: A clinical phase II trial is performed as a randomized, double-blind, placebo-controlled, parallel-group proof of concept study (Part A) with a conditional dose finding follow up study (Part B) to evaluate the efficacy, safety, tolerability and dose response of subcutaneously administered tafoxiparin as a supplement to induction therapy in term pregnant, nulliparous women with an unripe cervix. The study is performed in Sweden and Finland (PPL17), and an EMA (European Medicines Agency) description of the study can be found on the EU Clinical Trials Register web (www.clinicaltrialsregister.eu/ctr-search/search?query=PPL17).
# A total of 170 term pregnant women are randomized to receive either 300 mg of tafoxiparin, or corresponding placebo (vehicle), administered subcutaneously every 24±3 hours and up to a total of 7 doses, or until partus (Part A).
# In the dose finding follow up study (Part B), a total of 164 term pregnant women are randomized to receive either 75 or 150 mg of tafoxiparin administered subcutaneously every 24±3 hours […] and up to a total of 7 doses, or until partus.
# To assess the efficacy of tafoxiparin on cervical ripening/cervical ripening rate, during and up to the first seven days of treatment, measured by Bishop score. All women must be examined to check the cervical state before enrollment.
# Tafoxiparin/Placebo is supplied by Dilafor AB to the site as kits designed to constitute 300 mg of tafoxiparin or placebo for daily administration. Apart from the active substance, each ml of study drug will constitute 0.015 M phosphate buffer. The study medication kit for each patient will contain 8 doses consisting of 2 vials containing a minimum extractable volume of 1.6 ml of 150 mg/ml of tafoxiparin or placebo. One dose is a reserve dose in case a dose is rendered unusable. The investigational product should be administered subcutaneously every 24±3 hours by the site staff for up to 7 doses, or until partus. At each dosing time 1.0 ml of the drug will be extracted from each of the 2 vials and injected as separate s.c. injections in the abdominal or hip region.
# Tafoxiparin/Placebo is supplied by Dilafor AB to the site as kits designed to constitute 75 or 150 mg of tafoxiparin for daily administration. Apart from the active substance, each ml of study drug will constitute 0.015 M phosphate buffer. The study medication kit for each patient will contain 8 doses consisting of 2 vials for each injection occasion containing a minimum extractable volume of 1.6 ml of 150 mg/ml of tafoxiparin or placebo. For subjects receiving 75 mg of tafoxiparin, one vial will contain active substance and one containing placebo. For subjects receiving 150 mg of tafoxiparin, both vials will contain active substance. One dose is a reserve dose in case a dose is rendered unusable. The investigational product should be administered subcutaneously every 24±3 hours by the site staff for up to 7 doses, or until partus. At each dosing time, 0.5 ml of the drug will be extracted from each of the 2 vials and injected as separate s.c. injections in the abdominal or hip region.
# If the subject is found to be eligible for the study, they will be randomized to study treatment, i.e. 300 mg of tafoxiparin or corresponding placebo daily (Part A), or 75 or 150 mg daily (Part B).
# The study medication will be administered subcutaneously in the abdominal or hip region for up to a total of 7 doses or until labor induction or spontaneous onset of labor. If the cervix is still unripe after 7 doses of IMP, the patient is given cervical balloon catheter as a mean of labor induction.
# Subjects who enter into spontaneous onset of labor after 1-7 doses of IMP should be managed according to clinical routines.
# Subjects who are given 4-7 doses without entering into spontaneous onset of labor, but with a ripe cervix (Bishop Score ≥6), should be induced into labor by amniotomy and oxytocin treatment, but not before 4 treatment doses have been given. […]
substance,measurement,setting,value
tafoxiparin,"Labor induced with oxytocin, number of women","150 mg, n = 85",38
same,"Labor induced, number of women","150 mg, n = 85",48
same,"Labor induction with Balloon catheter, number of women","150 mg, n = 85",37
same,Number of patients with operative delivery,"150 mg, n = 85",41
same,"Labor induced with PGE-1, % of women","150 mg, n = 85",8.2%
same,"Fetal distress as indication for operative delivery (ODFD), % of women","150 mg, n = 85",23.5%
same,"patients with operative delivery, %","150 mg, n = 85",48.2%
same,"Labor induced with oxytocin, % of women","150 mg, n = 85, placebo 54.5%",44.7%
same,"Labor induced with amniotomy, % of women","150 mg, n = 85",45.9%
same,"Labor induction with Balloon catheter, % of women","150 mg, n = 85",43.5%
same,"Labor induced, % of women","150 mg, n = 85",56.5%
same,"women needing instrumental delivery (FIG. 4, vaginal mode of partus)","150 mg, women with spontaneous onset of labor, 9 of the 32 women, p-value 0.422",28.1%
same,women needing instrumental delivery or caesarian section to reach partus (FIG. 5),"150 mg, women with spontaneous onset of labor, 13 of 36 women",36.1%
same,women reaching partus by vaginal delivery with no need for instrumental delivery nor caesarian section (FIG. 5),"150 mg, women with spontaneous onset of labor, 23 of 36 women",63.9%
same,"time point of spontaneous onset of labor (FIG. 3, change of Bishop score)","300 mg and 150 mg, women with spontaneous onset of labor",achieved spontaneous onset of labor at an earlier time point than women treated with 75 mg tafoxiparin and placebo
same,women achieving spontaneous onset of labor (FIG. 1),"300 mg s.c. once daily up to 7 doses, 37 women of 90, p-value=0.089 (part A 0.080), placebo 28.7%",41.1%
same,development day-by-day towards a spontaneous onset of labor,"300 mg, 150 mg, 75 mg, Table 3",shows a dose-response relationship
same,women reaching spontaneous onset of labor with uncomplicated delivery,"300 mg, 27 of the 33 women, placebo 54.5%",81.8%
same,number of subjects (women) that reach spontaneous onset of labor,"300 mg, Study day 1",2
same,"subjects (women) that reach spontaneous onset of labor, % of n","300 mg, Study day 1",(5%)
same,number of subjects (women) that reach spontaneous onset of labor,"300 mg, Study day 2",11
same,"subjects (women) that reach spontaneous onset of labor, % of n","300 mg, Study day 2",(30%)
same,number of subjects (women) that reach spontaneous onset of labor,"300 mg, Study day 3",18
same,"subjects (women) that reach spontaneous onset of labor, % of n","300 mg, Study day 3",(49%)
same,number of subjects (women) that reach spontaneous onset of labor,"300 mg, Study day 4",23
same,"subjects (women) that reach spontaneous onset of labor, % of n","300 mg, Study day 4",(62%)
same,number of subjects (women) that reach spontaneous onset of labor,"300 mg, Study day 5",30
same,"subjects (women) that reach spontaneous onset of labor, % of n","300 mg, Study day 5",(81%)
same,number of subjects (women) that reach spontaneous onset of labor,"300 mg, Study day 6",34
same,"subjects (women) that reach spontaneous onset of labor, % of n","300 mg, Study day 6",(92%)
same,number of subjects (women) that reach spontaneous onset of labor,"300 mg, Study day 7",37
same,"subjects (women) that reach spontaneous onset of labor, % of n","300 mg, Study day 7",(100%)
same,"Fetal distress as indication for operative delivery (ODFD), number of women","300 mg, n = 91",11
same,"Labor induced with PGE-1, number of women","300 mg, n = 91",5
same,"Labor induced with amniotomy, number of women","300 mg, n = 91",50
same,"Labor induced with oxytocin, number of women","300 mg, n = 91",45
same,"Labor induced, number of women","300 mg, n = 91",53
same,"Labor induction with Balloon catheter, number of women","300 mg, n = 91",42
same,Number of patients with operative delivery,"300 mg, n = 91",32
same,"Labor induced with PGE-1, % of women","300 mg, n = 91",5.5%
same,"Fetal distress as indication for operative delivery (ODFD), % of women","300 mg, n = 91",12.1%
same,"patients with operative delivery, %","300 mg, n = 91",35.2%
same,"Labor induced with oxytocin, % of women","300 mg, n = 91, placebo 54.5%",49.5%
same,"Labor induced with amniotomy, % of women","300 mg, n = 91",54.9%
same,"Labor induction with Balloon catheter, % of women","300 mg, n = 91",46.2%
same,"Labor induced, % of women","300 mg, n = 91",58.2%
same,"women needing instrumental delivery (FIG. 4, vaginal mode of partus)","300 mg, women with spontaneous onset of labor, 6 of the 33 women, p-value=0.048 (part A 0.053)",18.2%
same,women needing instrumental delivery or caesarian section to reach partus (FIG. 5),"300 mg, women with spontaneous onset of labor, 10 of the 37 women",27%
same,women reaching partus by vaginal delivery with no need for instrumental delivery nor caesarian section (FIG. 5),"300 mg, women with spontaneous onset of labor, 27 of the 37 women",73%
same,effect on achieving spontaneous onset of labor,"all three doses 300 mg, 150 mg and 75 mg",effective for achieving spontaneous onset of labor
same,effect on mode of partus,"all three doses 300 mg, 150 mg and 75 mg, compared to placebo",effective for a person to reach partus by vaginal delivery and with less need for instrumental delivery or caesarian section
same,effect on need for instrumental delivery,"all three doses (300 mg, 150 mg and 75 mg), women with spontaneous onset of labor, compared to placebo",effective in reducing the need for instrumental delivery
same,effect on need for intervention to achieve onset of labor,"all three doses, compared to placebo",reduced the need for intervention in order to achieve onset of labor
same,time point of achieving a ripe cervix,"any one of the three doses 75 mg, 150 mg and 300 mg, vs placebo",achieve a ripe cervix at an earlier time point than women that have been treated with placebo
same,need for operative delivery (caesarean section and instrumental delivery) due to fetal distress,conclusion of the clinical study,reduction of the need for operative delivery
same,effect on cervical ripening (FIG. 3),doses 300 mg and 150 mg,beneficial effect on cervical ripening
same,estimated cervical ripening rate measured by Bishop score (FIG. 6),"first 7 days of treatment, all three doses (300 mg, 150 mg and 75 mg) compared to placebo",higher
same,"labor time up to vaginal delivery (partus) (FIG. 2, Kaplan-Meier)","women with spontaneous onset of labor, 300 mg (p=0.070), 150 mg (p 0.654), 75 mg (p 0.114) vs placebo",shorter labor time up to vaginal delivery (partus) compared to placebo
